# Legend:
# [1] = test system: ZR-75-1 cells; test: Cell growth (confluency, Incucyte S3); type: cell-based; details: ZR-75-1; 1 μM GDC0941 or AZD5363; SGK3-PROTAC1/cisSGK3-PROTAC1 0.3 μM, 14H 3 μM
# Procedure: (§1) Figure 6 SGK3-PROTAC1-mediated degradation of SGK3 further inhibiting the growth of cancer cell lines treated with PI3K-Akt pathway inhibitors. CAMA-1 (A, C) and ZR-75-1 (B, D) were treated with compounds as indicated either as monotherapy or in combination, and confluency was measured on the Incucyte S3 every 4 h for up to 4 weeks.
# (§2) For growth assays, ZR-75-1 cells were seeded in 96-well plates at a density of 6000 cells/well and left to adhere overnight. Cells were then treated with compounds as described in the figure legends and imaged every 4 h on the Incucyte S3 (Essen Bioscience) for up to 4 weeks to give a measure of cell confluency. Media were refreshed every 4–5 days.
# (§3) Supplementary Figure S3. SGK3-PROTAC compounds have no effect on cell growth. CAMA-1 and ZR-75-1
# (§4) confluency was m easured every 4 h on Incucyte S3.
# (§5) (1 picture or pasted object on this page, not shown here)
# [2] = test system: CAMA-1 cells; test: Cell growth (confluency, Incucyte S3); type: cell-based; details: CAMA-1; 1 μM GDC0941 or AZD5363; SGK3-PROTAC1/cisSGK3-PROTAC1 0.3 μM, 14H 3 μM
# Procedure: as §1, §2, §3, §4, §5
# [3] = molecular target: T1, SGK3 (Homo sapiens, UniProt Q96BR1); parameters: method as in PMID 27481935; details: cited from earlier work
# T1 sequence (Q96BR1 1-496): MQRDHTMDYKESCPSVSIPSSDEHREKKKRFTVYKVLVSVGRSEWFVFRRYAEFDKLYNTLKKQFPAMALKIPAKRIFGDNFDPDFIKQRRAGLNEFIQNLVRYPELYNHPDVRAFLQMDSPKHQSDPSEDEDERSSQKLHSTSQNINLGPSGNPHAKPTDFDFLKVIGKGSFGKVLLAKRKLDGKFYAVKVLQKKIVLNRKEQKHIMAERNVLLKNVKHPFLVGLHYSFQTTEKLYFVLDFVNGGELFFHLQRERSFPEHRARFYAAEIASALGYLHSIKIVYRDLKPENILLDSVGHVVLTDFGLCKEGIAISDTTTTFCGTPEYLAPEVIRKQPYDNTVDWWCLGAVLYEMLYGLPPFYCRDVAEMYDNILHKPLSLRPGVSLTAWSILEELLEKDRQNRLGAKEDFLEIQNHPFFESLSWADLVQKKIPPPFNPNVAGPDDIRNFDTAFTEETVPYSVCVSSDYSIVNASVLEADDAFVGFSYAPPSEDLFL
# [4] = molecular target: T2, SGK1 (Homo sapiens, UniProt O00141, S422D); parameters: method as in PMID 27481935; details: cited from earlier work
# T2 sequence (O00141 60-431 S422D limits assumed): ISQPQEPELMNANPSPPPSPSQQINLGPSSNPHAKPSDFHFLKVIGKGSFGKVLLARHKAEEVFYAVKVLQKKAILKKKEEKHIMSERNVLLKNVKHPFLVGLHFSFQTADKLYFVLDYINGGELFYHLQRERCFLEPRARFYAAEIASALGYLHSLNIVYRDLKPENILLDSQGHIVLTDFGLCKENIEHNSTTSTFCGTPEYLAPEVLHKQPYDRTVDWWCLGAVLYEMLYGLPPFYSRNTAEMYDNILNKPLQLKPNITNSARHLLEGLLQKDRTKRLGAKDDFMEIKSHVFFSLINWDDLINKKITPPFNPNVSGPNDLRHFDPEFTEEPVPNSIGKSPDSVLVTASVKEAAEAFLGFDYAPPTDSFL
# [5] = molecular target: S6K1 (Homo sapiens, UniProt P23443, T412E); parameters: method as in PMID 27481935; details: cited from earlier work
# [6] = test system: phosphorylation of NDRG1 at Thr346; test: NDRG1 phosphorylation in HEK293 cells, immunoblot; type: cell-based; details: HEK293, 8 h, 0.3 μM SGK3-PROTAC1, 1 μM 14H, 1 μM 308-R
# Procedure: Figure 3 Characterization of cellular activities of SGK3-PROTAC1 and cisSGK3-PROTAC1. (A) HEK293 cells were first treated for 8 h with 0.03–3 μM SGK3-PROTAC1 and cisSGK3-PROTAC1. One hour before lysis, cells were treated with 3 μM AZD5363. Lysates were subjected to immunoblot analysis with the indicated antibodies. […] Lysates were subjected to immunoblot analysis with the indicated antibodies. (C) HEK293 cells were treated for up to 48 h with SGK3-PROTAC1 (0.3 μM), and lysates were analyzed by immunoblot analysis using the indicated antibodies. (D) HEK293 cells were treated for 24 h with SGK3-PROTAC1. Cells were washed three times with DMEM to wash out the compound, and recovery of SGK3 expression protein was analyzed by immunoblot analysis. (E–G) As in A except that CAMA-1 (E), ZR-75-1 (F), and JIMT-1 (G) cells were employed rather than HEK293 cells.
# To study the impact of SGK3-PROTAC1 on phosphorylation of a physiological substrate, we monitored phosphorylation of NDRG1 at Thr346.[37] This site is also phosphorylated by Akt; therefore we treated cells with increasing doses of SGK3-PROTAC1 and cisSGK3-PROTAC1 for 8 h, with the addition of an Akt inhibitor (3 μM AZD5363) 1 h before lysis, to remove the impact of Akt phosphorylation of NDRG1. […] Concentrations of cisSGK3-PROTAC1 of above 1 μM were required to lower NDRG1 phosphorylation. […] This is consistent with previous work in HEK293 cells showing that inhibition of both Akt and SGK3 is required to block NDRG1 phosphorylation.[8],[37]
# All cell treatments were carried out as described in figure legends, to a final DMSO concentration of 0.1% (v/v). Lysates were quantified. Immunoblotting was performed using standard procedures, described in brief below. Lysate concentration was quantified by Bradford Assay, and 10 μg of lysate was loaded in the LDS sample buffer for SDS-PAGE electrophoresis on Novex 4–12% Bis–Tris gels. Proteins were electrophoretically transferred onto nitrocellulose membranes (Amersham Protran 0.45 μm NC; GE Healthcare) at 80 V for 80 min on ice in transfer buffer. Transferred membranes were blocked with 5% (w/v) nonfat dry milk dissolved in TBS-T [20 mM Tris/HCl, pH 7.5, 150 mM NaCl, and 0.1% (v/v) Tween 20] at RT for 30 min, before incubation with the primary antibody overnight at 4 °C. The signal was produced with near-infrared secondary antibodies and detected using a Licor Biosciences Odyssey System, and the signal was quantified in Image Studio Lite.
# Sequence of S6K1 (P23443 1-421 T412E limits assumed): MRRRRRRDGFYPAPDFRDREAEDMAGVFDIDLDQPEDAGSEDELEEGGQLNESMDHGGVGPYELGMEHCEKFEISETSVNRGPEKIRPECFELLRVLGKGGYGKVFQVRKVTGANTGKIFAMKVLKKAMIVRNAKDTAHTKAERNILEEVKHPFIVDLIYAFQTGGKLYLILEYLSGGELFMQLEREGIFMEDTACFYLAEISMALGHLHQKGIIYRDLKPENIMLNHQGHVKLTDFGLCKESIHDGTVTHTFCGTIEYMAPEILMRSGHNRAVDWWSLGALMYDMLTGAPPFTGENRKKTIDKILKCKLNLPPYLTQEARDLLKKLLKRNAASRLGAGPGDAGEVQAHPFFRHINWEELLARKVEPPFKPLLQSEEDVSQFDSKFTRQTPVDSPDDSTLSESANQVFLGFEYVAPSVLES
structure (smiles),measurement,setting,value
"Nc1n[nH]c2nc(-c3ccc(NS(=O)(=O)c4cc(Cl)ccc4Cl)cc3)ncc12 [14H, reference compound]",growth in combination with GDC0941 or AZD5363,[1],further suppressed cell growth
same,growth in combination with GDC0941 or AZD5363,[2],further suppressed cell growth
same,IC50,[3],0.004 µM
same,IC50,[4],0.01 µM
same,IC50,[5],0.076 µM
same,pNDRG1 phosphorylation,"[6]; basal, no inhibition of Akt",minimal effect
same,NDRG1 phosphorylation,[6]; in the presence of 3 μM AZD5363,markedly suppressed

# From paper PMC6757289, “Design and Characterization of SGK3-PROTAC1, an Isoform Specific SGK3 Kinase PROTAC Degrader” (ACS Chemical Biology, 2019)
